Assay results from patent US8926998B2, “Polycarbonates bearing pendant primary amines for medical applications” (International Business Machines Corporation, priority 2012, dated 2015).

Tested on: S. aureus
Assay: Minimal inhibitory concentration (MIC), broth microdilution
Type: cell-based, Staphylococcus aureus
Settings: free drug
Experimental: Bacteria (S. aureus, S. epidermis and E. coli) and Yeast (C. albicans) obtained from ATCC were reconstituted from its lyophilized form according to the manufacturer's protocol. Bacterial samples were cultured in tryptic soy broth (T-SB) or Mueller Hinton broth (M-HB) solution at 37° C., and yeast cells were cultured in YMB at room temperature under constant shaking of 100 rpm. The MICs of the polymers were measured using the broth microdilution method. Briefly, 100 microliters of the respect broth medium containing a polymer at various concentrations (15.6, 31.3, 62.5, 125, 250, 500, 1000, 2000 mg/L) was placed into each well of a 96-well tissue culture plate. An equal volume of microbial suspension (3×10^5 CFU/mL) was added into each well. Prior to mixing, the microbial sample was first inoculated overnight to enter its log growth phase. The concentration of microbial solution was adjusted to give an initial optical density (O.D.) reading of approximately 0.07 at 600 nm wavelength on a microplate reader (TECAN, Switzerland), which corresponds to the concentration of Mc Farland 1 solution (3×10^8 CFU/mL), the microbial solution was further diluted by 1000 times to achieve an initial loading of 3×10^5 CFU/mL. The bacterial samples were kept in an incubator at 37° C. for 18 hours, while the Yeast samples were kept at room temperature for 42 hours under constant shaking of 100 rpm. […]

For CC1(C)S[C@@H]2[C@H](NC(=O)Cc3ccccc3)C(=O)N2[C@H]1C(=O)O [PenG, Penicillin G], the “MIC S. aureus” value was “about 0.01 mg/L”.
